For 14 molecules, IC50 results are on record in patent publication EP3381898A1, “SYMMETRICAL TRIS-ARYL-AMIDE DERIVATIVES AND THEIR USE AS ANTI-HEPARANASE” (priority 2017, dated 2018).

SMILES strings stand for the structures. Structures can show the parent of a compound that is named as a salt.

This assay deals with T1, heparanase (Homo sapiens, UniProt Q9Y251).
T1 sequence (Q9Y251 158-543 limits assumed): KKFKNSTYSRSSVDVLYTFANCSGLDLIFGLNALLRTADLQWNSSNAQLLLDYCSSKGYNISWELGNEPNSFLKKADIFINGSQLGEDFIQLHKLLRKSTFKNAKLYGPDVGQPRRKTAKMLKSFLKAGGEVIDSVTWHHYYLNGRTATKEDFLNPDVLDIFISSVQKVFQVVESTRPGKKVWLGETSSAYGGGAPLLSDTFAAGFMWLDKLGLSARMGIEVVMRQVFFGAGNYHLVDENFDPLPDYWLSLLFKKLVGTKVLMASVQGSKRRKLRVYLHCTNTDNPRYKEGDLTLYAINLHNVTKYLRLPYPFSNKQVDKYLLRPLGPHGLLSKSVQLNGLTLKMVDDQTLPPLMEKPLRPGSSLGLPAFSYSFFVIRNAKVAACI
T1 sequence (Q9Y251 36-109 limits assumed): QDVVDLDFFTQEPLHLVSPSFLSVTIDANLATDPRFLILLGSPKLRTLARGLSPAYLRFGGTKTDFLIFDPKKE
The assay can be described thus: AGA*IA assay: heparanase-catalyzed fondaparinux cleavage, colorimetric (WST-1). Conditions: Table 1; range activity classes, AGA*IA test on Fondaparinux; read-out: AGAIA assay IC50. The format is biochemical. The method, then: All compounds were tested in a simple, accurate and robust microplate assay based on the cleavage of the synthetic heparin fragment, the pentasaccharide Fondaparinux (AGA*IA). This assay was originally developed by Hammond and coworkers (Hammond E, Li CP, Ferro V. Development of a colorimetric assay for heparanase activity suitable for kinetic analysis and inhibitor screening. Anal. Biochem. 396(1), 112-116 (2010)), where Fondaparinux corresponds to the methyl glycoside of the antithrombin III (ATIII)-activating pentasaccharide sequence of heparin. Fondaparinux is cleaved by heparanase to generate a reducing disaccharide, which can be quantitatively measured via a colorimetric or a fluorescence assay, the last by the fluorescent sensor polymer-H [Schiemann S, Lühn S, Alban S. Development of both colorimetric and fluorescence heparinase activity assays using fondaparinux as substrate. Anal. Biochem. 427(1), 82-89 (2012)].
The assay measures the appearance of the disaccharide product of heparanase-catalyzed fondaparinux cleavage colorimetrically using the tetrazolium salt WST-1. Assay was essentially performed as described with minor modifications. Briefly, NUNC ELISA 96-well plates were pre-treated with a solution of 4% BSA (bovin serum albumin) in phosphate-buffered saline containing 0.05% Tween 20 (PBST), for 2 h at 37°C, then washed three times with PBST, dried by tapping on paper towel and stored at -20°C. Before use, once again, the plates were washed with PBST.
Assay was carried out with 100 µl/well of assay solution containing 40 mM sodium acetate buffer (pH 5.0), 100 µM fondaparinux, 2.5 nM heparanase and serial dilutions of test compounds (tested in triplicate). Plates were sealed with adhesive tape and incubated, in the dark, for 3 h at 37°C, followed by development with 1.69 mM of the tetrazolium salt WST-1 solution in 0.1 M NaOH, for 1 h at 60°C. Then, the absorbance at 560 nm was measured through a microplate reader (Victor 3, Perkin Elmer).
Finally, the measurements were corrected by subtracting both the reagent background and the inner absorbance value of test compound.
Broadly, the IC50 is the midpoint of a concentration-inhibition curve. For the molecule `CC(C)C[C@H](NC(=O)Cc1cccc(NC(=O)c2cc(NC(=O)c3ccc(Oc4ccc(C(=O)Nc5cc(C(=O)Nc6cccc(CC(=O)N[C@@H](CC(C)C)B(O)O)c6)n(C)c5)cc4)cc3)cn2C)c1)B(O)O` [Compound 42, ((1R,1'R)-((2,2'-(((4,4'-((4,4'-Oxybis(benzoyl))bis(azanediyl))bis(1-methyl-1H-pyrrole-2,2'-carbonyl))bis(azanediyl))bis(3,1-phenylene))bis(acetyl))bis(azanediyl))bis(3-methylbutane-1,1-diyl))diboronic acid], the IC50 was in the range of 1 to 20 µM.

For `CC(C)C[C@H](NC(=O)Cc1cccc(NC(=O)c2cc(NC(=O)c3cccc(NC(=O)Nc4cccc(C(=O)Nc5cc(C(=O)Nc6cccc(CC(=O)N[C@@H](CC(C)C)B(O)O)c6)n(C)c5)c4)c3)cn2C)c1)B(O)O` [Compound 43, ((1R,1'R)-((2,2'-(((4,4'-((3,3'-(Carbonylbis(azanediyl))bis(benzoyl))bis(azanediyl))bis(1-methyl-1H-pyrrole-4,2-diyl-2-carbonyl))bis(azanediyl))bis(3,1-phenylene))bis(acetyl))bis(azanediyl))bis(3-methylbutane-1,1-diyl))diboronic acid], the IC50 lay within 1 to 20 µM.

Regarding `CC(C)CC(NC(=O)Cc1cccc(NC(=O)c2cc(NC(=O)c3cc(NC(=O)Nc4cc(C(=O)Nc5cc(C(=O)Nc6cccc(CC(=O)NC(CC(C)C)C(=O)O)c6)n(C)c5)n(C)c4)cn3C)cn2C)c1)C(=O)O` (centres unmarked) [Compound 17a, 2,2'-{carbonylbis[imino(1-methyl-1H-pyrrole-4,2-diyl)carbonylimino(1-methyl-1H-pyrrole-4,2-diyl)carbonylimino-3,1-phenylene(1-oxoethane-2,1-diyl)imino]}bis(4-methylpentanoic acid)], the IC50 was 1 to 20 µM.

Regarding `CC(C)C[C@H](NC(=O)Cc1cccc(NC(=O)c2cc(NC(=O)c3cc(NC(=O)Nc4cc(C(=O)Nc5cc(C(=O)Nc6cccc(CC(=O)N[C@@H](CC(C)C)B(O)O)c6)n(C)c5)n(C)c4)cn3C)cn2C)c1)B(O)O` [Compound 41, ((1R,1'R)-((2,2'-(((4,4'-((4,4'-(carbonylbis(azanediyl))bis(1-methyl-1H-pyrrole-4,2-diyl-2-carbonyl))bis(azanediyl))bis(1-methyl-1H-pyrrole-4,2-diyl-2-carbonyl))bis(azanediyl))bis(3,1-phenylene))bis(acetyl))bis(azanediyl))bis(3-methylbutane-1,1-diyl))diboronic acid], the half-maximal inhibitory concentration (IC50) was 1 to 20 µM.

With `Cn1cc(NC(=O)c2ccc(Oc3ccc(C(=O)Nc4cc(C(=O)Nc5cccc(CC(=O)NCC(=O)O)c5)n(C)c4)cc3)cc2)cc1C(=O)Nc1cccc(CC(=O)NCC(=O)O)c1` [Compound 36b, 2,2'-((2,2'-(((4,4'-((4,4'-Oxybis(benzoyl))bis(azanediyl))bis(1-methyl-1H-pyrrole-2,2'-carbonyl))bis(azanediyl))bis(3,1-phenylene))bis(acetyl))bis(azanediyl))diacetic acid], the IC50 fell in the range of 1 to 20 µM.

For the molecule `Cn1cc(NC(=O)c2ccc(Oc3ccc(C(=O)Nc4cc(C(=O)Nc5cccc(CC(=O)N[C@@H](CCC(=O)O)C(=O)O)c5)n(C)c4)cc3)cc2)cc1C(=O)Nc1cccc(CC(=O)N[C@@H](CCC(=O)O)C(=O)O)c1` [Compound 36f, (2S,2'S)-2,2'-((2,2'-(((4,4'-((4,4'-Oxybis(benzoyl))bis(azanediyl))bis(1-methyl-1H-pyrrole-2,2'-carbonyl))bis(azanediyl))bis(3,1-phenylene))bis(acetyl))bis(azanediyl))dipentanedioic acid], the IC50 is 1 to 20 µM.

As to `CC(C)C[C@H](NC(=O)CNC(=O)Cc1cccc(NC(=O)c2cc(NC(=O)c3cccc(NC(=O)Nc4cccc(C(=O)Nc5cc(C(=O)Nc6cccc(CC(=O)NCC(=O)N[C@@H](CC(C)C)B(O)O)c6)n(C)c5)c4)c3)cn2C)c1)B(O)O` [Compound 47, ((1R,1'R)-((2,2'-((2,2'-(((4,4'-((3,3'-(Carbonylbis(azanediyl))bis(benzoyl))bis(azanediyl))bis(1-methyl-1H-pyrrole-4,2-diyl-2-carbonyl))bis(azanediyl))bis(3,1-phenylene))bis(acetyl))bis(azanediyl))bis(acetyl))bis(azanediyl))bis(3-methylbutane-1,1-diyl))diboronic acid], the IC50 was 1 to 20 µM.

In the case of `Cn1cc(NC(=O)c2ccc(Oc3ccc(C(=O)Nc4cc(C(=O)Nc5cccc(CC(=O)N[C@@H](CCCCN)C(=O)O)c5)n(C)c4)cc3)cc2)cc1C(=O)Nc1cccc(CC(=O)N[C@@H](CCCCN)C(=O)O)c1` [Compound 36c, (2S,2'S)-2,2'-((2,2'-(((4,4'-((4,4'-oxybis(benzoyl))bis(azanediyl))bis(1-methyl-1H-pyrrole-4,2-diyl-2-carbonyl))bis(azanediyl))bis(3,1-phenylene))bis(acetyl))bis(azanediyl))bis(6-aminohexanoic acid) dihydrochloride], the IC50 lay in the range of 1 to 20 µM.

Turning to `CC(C)C[C@H](NC(=O)Cc1cccc(NC(=O)c2cc(NC(=O)c3ccc(Oc4ccc(C(=O)Nc5cc(C(=O)Nc6cccc(CC(=O)N[C@@H](CC(C)C)C(=O)O)c6)n(C)c5)cc4)cc3)cn2C)c1)C(=O)O` [Compound 36a, (2S,2'S)-2,2'-((2,2'-(((4,4'-((4,4'-Oxybis(benzoyl))bis(azanediyl))bis(1-methyl-1H-pyrrole-2,2'-carbonyl))bis(azanediyl))bis(3,1-phenylene))bis(acetyl))bis(azanediyl))bis(4-methylpentanoic acid)], the IC50 fell in the range of 1 to 20 µM.

On to `Cn1cc(NC(=O)Nc2cc(C(=O)Nc3cc(C(=O)Nc4cccc(CC(=O)N[C@@H](CCC(=O)O)C(=O)O)c4)n(C)c3)n(C)c2)cc1C(=O)Nc1cc(C(=O)Nc2cccc(CC(=O)N[C@@H](CCC(=O)O)C(=O)O)c2)n(C)c1` [Compound 17f, 2,2'-{carbonylbis[imino-3,1-phenylenecarbonylimino(1-methyl-1H-pyrrole-4,2-diyl)carbonylimino-3,1-phenylene(1-oxoethane-2,1-diyl)imino]}dipentandioic acid], for which the IC50 fell in the range of 1 to 20 µM.

Take `Cn1cc(NC(=O)c2cccc(NC(=O)Nc3cccc(C(=O)Nc4cc(C(=O)Nc5cccc(CC(=O)N[C@@H](CCC(=O)O)C(=O)O)c5)n(C)c4)c3)c2)cc1C(=O)Nc1cccc(CC(=O)N[C@@H](CCC(=O)O)C(=O)O)c1` [Compound 12f, 2,2'-{carbonylbis[imino-3,1-phenylenecarbonylimino(1-methyl-1H-pyrrole-4,2-diyl)carbonylimino-3,1-phenylene(1-oxoethane-2,1-diyl)imino]}dipentandioic acid]: the IC50 lay within 1 to 20 µM.

In the case of `CC(C)C[C@H](NC(=O)CNC(=O)Cc1cccc(NC(=O)c2cc(NC(=O)c3cc(NC(=O)Nc4cc(C(=O)Nc5cc(C(=O)Nc6cccc(CC(=O)NCC(=O)N[C@@H](CC(C)C)B(O)O)c6)n(C)c5)n(C)c4)cn3C)cn2C)c1)B(O)O` [Compound 46, ((1R,1'R)-((2,2'-((2,2'-(((4,4'-((4,4'-(carbonylbis(azanediyl))bis(1-methyl-1H-pyrrole-4,2-diyl-2-carbonyl))bis(azanediyl))bis(1-methyl-1H-pyrrole-4,2-diyl-2-carbonyl))bis(azanediyl))bis(3,1-phenylene))bis(acetyl))bis(azanediyl))bis(acetyl))bis(azanediyl))bis(3-methylbutane-1,1-diyl))diboronic acid], the IC50 fell in the range of 1 to 20 µM.

Consider `Cn1cc(NC(=O)c2cccc(NC(=O)Nc3cccc(C(=O)Nc4cc(C(=O)Nc5cccc(CC(=O)N[C@@H](CCCCN)C(=O)O)c5)n(C)c4)c3)c2)cc1C(=O)Nc1cccc(CC(=O)N[C@@H](CCCCN)C(=O)O)c1` [Compound 12c, 5,5'-{carbonylbis[imino-3,1-phenylenecarbonylimino(1-methyl-1H-pyrrole-4,2-diyl)carbonylimino-3,1-phenylene(1-oxoethane-2,1-diyl)imino]}bis(1-aminium-6-hexanoic acid) trifluoroacetate salt], for which the IC50 fell in the range of 1 to 20 µM.

As to `CC(NC(=O)Cc1cccc(NC(=O)c2cc(NC(=O)c3cccc(NC(=O)Nc4cccc(C(=O)Nc5cc(C(=O)Nc6cccc(CC(=O)NC(C)C(=O)O)c6)n(C)c5)c4)c3)cn2C)c1)C(=O)O` (centres unmarked) [Compound 12d, 2,2'-{carbonylbis[imino-3,1-phenylenecarbonylimino(1-methyl-1H-pyrrole-4,2-diyl)carbonylimino-3,1-phenylene(1-oxoethane-2,1-diyl)imino]}dipropanoic acid], the IC50 lay within 1 to 20 µM.
